Assay results: patent publication US20150299250A1, “MACROCYCLIC COMPOUNDS AND USES THEREOF” (ADELAIDE RESEARCH & INNOVATION PTY LTD, priority 2012, published 2015)
Like-named read-outs stand apart in the source and are kept apart here. Where a SMILES comes first, the peptide text is derived from it. The star is where a group is joined. Cbz = O=C(OCc1ccccc1)*

Columns and labels:
[1] = tested on: WE-68 Ewing's sarcoma cells; test: Cell viability assay (7AAD, 48 hours), WE-68; type: cell-based; settings: 48 hours exposure; read-out: Cancer cell lines IC50 (μM) WE-68
Method: (§1) Cell viability assays were performed as previously described. Briefly, cells were seeded in 96 well microtiterplates at a density of 3×10^4 cells per well in the presence of the indicated chemical. Cells were harvested 48 hours post-treatment, centrifuged at 1,300×g, washed in phosphate-buffered saline (PBS) and stained with 7AAD solution (2 μg/mL) (7-amino-actinomycin-D, Invitrogen, Carlsbad, Calif.) for 10 mins at room temperature. Viable cells were determined with the use of a FACS Calibur flow cytometer (Becton Dickinson Immunocytometry Systems), and analyzed with the use of FLOWJO (Tree Star, Inc) and GraphPad Prism (GraphPad Software Inc).
(§2) WE-68 and VH-64 Ewing's sarcoma cells were kindly supplied by F. van Valen (Department of Orthopaedic Surgery, Westfalische-Wilhelms-University, Germany).TC-252 and STA-ET-1 Ewing's sarcoma cells were kindly provided by G. Hamilton (Department of Surgery, University of Vienna, Austria) or P. Ambros (Children's Cancer Research Institute, St Anna Children's Hospital, Vienna, Austria). Primary human embryonic fibroblasts or primary human osteoblasts were collected from the Women's and Children's Hospital (North Adelaide, South Australia, Australia) or Royal Adelaide Hospital with patient consent. Mouse Embryonic Fibroblasts (MEFs) and its p53-null derivative were kindly supplied by Guillermina Lozano (Department of Genetics, Anderson Cancer Centre, University of Texas, Houston, Tex., USA). WE-68 cell lines were grown in RPMI-1640 media, whilst human embryonic fibroblasts and MEFs were grown in Dulbecco's Modified Eagle's Medium (DMEM). Media was supplemented with 10% FCS, 1% PSG and 10 mM HEPES. All cells were maintained at 37° C. in a humidified atmosphere of 5% CO2.

[2] = tested on: VH-64 Ewing's sarcoma cells; test: Cell viability assay (7AAD, 48 hours), VH-64; type: cell-based; settings: 48 hours exposure; read-out: Cancer cell lines IC50 (μM) VH-64
Method: as §1, §2

[3] = molecular target: T1, 20S proteasome chymotrypsin-like (CT-L) activity (Oryctolagus cuniculus, UniProt G1T4Q9); test: In vitro proteasome activity assay, CT-L (Suc-LLVY-AMC); type: biochemical, rabbit; settings: for IC50: purified 20S proteasome
T1 sequence (G1T4Q9 1-263): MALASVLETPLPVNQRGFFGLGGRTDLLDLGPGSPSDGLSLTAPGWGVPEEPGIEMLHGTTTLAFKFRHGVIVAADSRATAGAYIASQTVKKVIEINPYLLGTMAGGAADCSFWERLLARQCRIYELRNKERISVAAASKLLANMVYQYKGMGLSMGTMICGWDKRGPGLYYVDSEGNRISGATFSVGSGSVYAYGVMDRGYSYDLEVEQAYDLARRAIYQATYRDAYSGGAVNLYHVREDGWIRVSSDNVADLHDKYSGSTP
Method: The assays were performed in vitro using purified 20S proteasome/inhibitor mixtures, with the activity of each subunit of the proteasome assessed upon incubation with its respective target peptide.
Purified rabbit 20S proteasome and fluorogenic CT-L substrate (Suc-LLVY-AMC) were purchased from Boston Biochem (Cambridge, Mass., USA). The T-L and CP-L fluorogenic substrates (Ac-RLR-AMC and Z-nLPnLD-AMC) were purchased from Enzo Life Sciences (Farmingdale, N.Y., USA). The 20S proteasome was diluted to 0.2 μg/μL in 20S proteasome buffer (50 mM HEPES pH 7.6, 150 mM NaCl and 1 mM DDT) and stored at −80° C. Purified 20S proteasome (8 ng) was pre-incubated with the indicated concentrations of inhibitors for 15 minutes and subsequently added to the AMC-labeled substrate peptide (50 μM) in assay buffer (25 mM HEPES, pH 7.5, 0.5 mM EDTA, 0.05% NP-40, and 0.001% SDS (w/v)) at 37° C. for 2 hours.

[4] = tested on: MEF p53+/+ (mouse embryonic fibroblasts); test: Cell viability assay, MEF p53+/+; type: cell-based
From the text: (§3) Although proteasome inhibitors have been translated from the bench to the clinic over the past decade, their specific mechanisms of action remain poorly understood. As discussed earlier, proteasomal over-activity in tumor cells has been attributed to aberrant degradation of numerous critical cancer-related pro proteins, including the pro-apoptotic tumor suppressor, p53. However, the role of p53 as a downstream mediator of cell death in response to proteasomal inhibition remains unclear. Therefore, we used our small library of CT-L specific proteasome inhibitors (compounds 1-6) to determine the role of p53 in their mechanism of cytotoxic action. For this purpose, we utilized mouse embryonic fibroblasts (MEFs) from transgenic p53^+/+ and p53^−/− littermates. This isogenic pair of cell lines are either competent (MEF p53^+/+) or deficient (MEF p53^−/−) in p53 protein and are used here to assess a potential role for p53 as a downstream inducer of cell death in response to proteasomal inhibition.
as §1, §2

[5] = tested on: MEF p53-/- (mouse embryonic fibroblasts lacking p53); test: Cell viability assay, MEF p53-/-; type: cell-based; settings: for sensitivity of MEFs lacking p53 (p53-/-) to cytotoxic effects (in words): compared with p53+/+ MEFs
From the text: as §3, §1
WE-68 and VH-64 Ewing's sarcoma cells were kindly supplied by F. van Valen (Department of Orthopaedic Surgery, Westfalische-Wilhelms-University, Germany).TC-252 and STA-ET-1 Ewing's sarcoma cells were kindly provided by G. Hamilton (Department of Surgery, University of Vienna, Austria) or P. Ambros (Children's Cancer Research Institute, St Anna Children's Hospital, Vienna, Austria). […]

p53 protein = test: Western blot analysis of p53 protein expression in MEF p53+/+; type: cell-based, mouse; settings: MEFs p53+/+, 16 hours treatment
Method: Dose-response curves are provided in Supplementary Figure S3. Compound 1 was not assayed using this system.
Western blot analyses were performed as previously described. Briefly, cells were harvested and lysed in 50 mM Tris-HCl (pH 7.5), 250 mM NaCl, 1 mM EDTA, 50 mM NaF, 0.5% TritonX-10, 0.5 mM Na3VO4 and 1× […] inhibitor (Roche, Indianapolis, Ind., USA). Lysates were incubated on ice for 8 minutes and sonicated using a Vibra-Cell VCX130 (Sonics & Materials, Inc) at 25% amplitude for 10 seconds. Protein concentrations were assayed with the bicinchoninic acid assay (Thermo Scientific, Massachusetts, USA) and subsequently resolved using a 10% SDS-PAGE gel. Proteins were transferred onto a nitrocellulose membrane (Hybond-C Extra, Amersham Biosciences), blocked (10% milk/TBST; 30 mins), hybridized with the appropriate primary or HRP-conjugated secondary antibody and subsequently visualized using Enhanced Chemiluminescence (Amersham Biosciences).
Antibodies used included a mouse anti-β-actin (Sigma), anti-p53 (1C12-mouse specific) (Cell Signalling, Danvers, Mass., USA), sheep anti-mouse IgG-HRP (Amersham Biosciences, Piscataway, N.J., USA), or donkey anti-rabbit IgG-HRP (Amersham Biosciences).

[6] = Mus musculus, Fibroblast; read-out: IC50 in MEF p53+/+

SMILES	IC50 [1]	IC50 [2]	IC50 [3]	IC50 [4, 6]	increase in potency against CT-L relative to compound 4 (Leu at P2) [3]	sensitivity of MEFs lacking p53 (p53-/-) to cytotoxic effects (in words) [5]	p53 protein levels (p53 protein)	MEF p53+/+ more sensitive compared to MEF p53-/- [4]	IC50 ([4]; Mus musculus, Fibroblast, read-out: IC50 in MEF p53+/+)	IC50 ([5]; Mus musculus, Fibroblast, read-out: IC50 in MEF p53-/-)
C#CCOc1ccc(C[C@@H](C=O)NC(=O)[C@H](CC(C)C)NC(=O)[C@H](CCN=[N+]=[N-])NC(=O)OCc2ccccc2)cc1 [Compound 2]	4.7 µM	4.9 µM	355 nM	2700 to 10300 nM	–	–	–	–	–	–
C#CCOc1ccc(C[C@@H](C=O)NC(=O)[C@H](CC(C)C)NC(=O)[C@H](CCCN=[N+]=[N-])NC(=O)OCc2ccccc2)cc1 [Compound 3]	0.47 µM	2.1 µM	54 nM	2700 to 10300 nM	–	–	–	–	–	–
C#CCOc1ccc(C[C@@H](C=O)NC(=O)[C@H](CC(C)C)NC(=O)[C@H](CCCCN=[N+]=[N-])NC(=O)OCc2ccccc2)cc1 [Compound 4]	10.8 µM	1.9 µM	150 nM	2700 to 10300 nM	–	–	–	–	–	–
C#CCOc1ccc(C[C@@H](C=O)NC(=O)[C@@H](NC(=O)[C@H](CCCCN=[N+]=[N-])NC(=O)OCc2ccccc2)[C@@H](C)CC)cc1 [Compound 5]	0.98 µM	1.1 µM	21 nM	2700 to 10300 nM	7.5 fold	resistant	–	–	–	–
C#CCOc1ccc(C[C@@H](C=O)NC(=O)[C@H](CC(C)C)NC(=O)[C@H](Cc2ccc(N=[N+]=[N-])cc2)NC(=O)OCc2ccccc2)cc1 [Compound 6]	1.1 µM	1.9 µM	23 nM	2700 to 10300 nM	–	resistant	–	–	–	–
CC(C)C[C@@H](C=O)NC(=O)[C@H](CC(C)C)NC(=O)[C@H](CC(C)C)NC(=O)OCc1ccccc1 [MG132, reference compound] (Cbz-Leu-Leu-Leu-aldehyde)	0.68 µM	0.68 µM	1.2 nM	–	–	–	increase p53 protein levels	over 2 fold	410 nM	940 nM
